This is an account of results in US8653024B2, “Use of AMPs for treatment of UTI/cystitis” (Adenium Biotech Aps, priority 2009, dated 2014).

Values joined by “and” are separate entries in the source; they are usually repeats but may differ in a detail not shown here. Identical values can stand only once. “Also recorded” adds a separate entry of the source.

Assay [1] concerns Escherichia coli DSA 443. Description: Murine urinary tract infection (UTI) model, Example 1: colony counts in urine, bladder and kidney. The settings on record: for Mean colony counts + SEM, bladder day 3 / Mean colony counts + SEM, kidney day 3 / Mean colony counts + SEM, urine day 1 / Mean colony counts + SEM, urine day 2 / Mean colony counts + SEM, urine day 3: female OF-1 mice; for Mean colony counts + SEM, urine day 1: day 1 post infection, before first treatment; for Mean colony counts + SEM, urine day 2: day 2 post infection; for Bacterial reduction in the urine compared to vehicle treatment: p<0.001. It is filed as in vivo.

In assay [2] the test system is Escherichia coli DSA 443. The experiment in a line: Murine urinary tract infection model, Example 2 (carried out as described in Example 1). It is filed as in vivo. The settings on record: for Mean colony counts ± SEM, bladder day 3 / Mean colony counts ± SEM, kidney day 3 / Mean colony counts ± SEM, urine day 1 / Mean colony counts ± SEM, urine day 3: mice; for Mean colony counts ± SEM, bladder day 3 / Mean colony counts ± SEM, kidney day 3 / Mean colony counts ± SEM, urine day 3: day 3 post infection; for Mean colony counts ± SEM, urine day 1: day 1 post infection, before first treatment; for Bacterial reduction in the kidneys compared to vehicle treatment / Bacterial reduction in the urine compared to vehicle treatment / Bacterial reduction in the bladder compared to vehicle treatment: 10 mg/kg i.v. BID; for Bacterial reduction in the kidneys compared to vehicle treatment: p<0.05; for Effect of treatment compared to Meropenem: 10 mg/kg vs 40 mg/kg Meropenem; for Bacterial reduction in the urine compared to vehicle treatment / Bacterial reduction in the bladder compared to vehicle treatment: after 2 days of treatment; for Bacterial reduction in the urine compared to vehicle treatment: p<0.001; for Bacterial reduction in the bladder compared to vehicle treatment: p<0.01. How it is done:
The efficacy of Arenicin administered BID i.v. days 1 and 2 post infection at a rate of 10 ml/kg to female OF-1 mice (14/group), at a dosage of 10 mg/kg, was assessed against E. coli DSA 443. Treatment with 40 mg/kg Meropenem was included as a positive control and treatment with vehicle was included as a negative control.
Starting on day −4 before inoculation, mice were given drinking water containing 5% glucose. On day 0, the bladder of each mouse was emptied of urine, and each mouse was inoculated with 50 microliters bacteria suspension (E. coli DSA 443 9.3 log10 CFU/ml) via a catheter in the urethra into the bladder.
Urine was sampled from all mice at 24 hours post infection, before the first treatment, and colony counts were determined. 48 and 72 hours post infection, urine was sampled from all mice and kept at room temperature until analyzed. CFU was determined in urine samples within 2-3 hours after sampling. On day 3, mice were sacrificed by cervical dislocation and the bladders and kidneys were collected and stored at −80° C. until analyses. Frozen organs were thawed and homogenized with steel beads on a tissue lyser. All samples, urine, kidney and bladder, were 10 fold diluted in saline and 20 microliter spots were applied on blue agar plates in duplicates. Also undiluted urine (100 microliters if possible) was spread on a separate agar plate to determine the colony counts lowest possible detection level (10 CFU/ml). All agar plates were incubated 18-22 hrs at 35° C. in ambient air.
The CFU numbers are log10 transformed before performing calculations to obtain a normal (or closer to normal) distribution. The data are presented below in Table 1 as mean±SEM. Significance levels were calculated with one-way ANOVA, Dunnett's multiple comparison test and are indicated by the stars in the figures.
The experiment was carried out as described in Example 1.
The efficacies of Variant1 and Variant2 (10 mg/kg) (formulated in Ringer acetate pH 6) were investigated following intravenous (i.v.) administration BID day 1 and day 2 post infection with Escherichia coli DSA 443 (clinical isolate, SSI) in a murine Urinary Tract Infection model. Treatment with 40 mg/kg Meropenem was included as a positive control group.

Setting [3] is: 10 mg/kg i.v. BID day 1 and day 2.

Consider `C[C@@H](O)[C@H]1C(=O)N2C(C(=O)O)=C(S[C@@H]3CN[C@H](C(=O)N(C)C)C3)[C@H](C)[C@H]12` [Meropenem, reference compound], for which the “Bacterial loads in the kidneys compared to vehicle” value in assay [1] (40 mg/kg, day 3 post infection) is listed as “slightly, but not significantly, reduced”. In addition, in assay [1] (bladder, day 3 post infection, 40 mg/kg (positive control)), the “Mean colony counts + SEM, bladder day 3” value turned out to be 3.9 ± 0.3 log10 CFU. Also, the “Mean colony counts + SEM, kidney day 3” value in assay [1] (day 3 post infection, 40 mg/kg (positive control)) is given as 1.8 ± 0.3 log10 CFU. Besides, in assay [1] (urine, 40 mg/kg group (positive control)), the “Mean colony counts + SEM, urine day 1” value turned out to be 7.0 ± 0.4 log10 CFU. In assay [1] (urine, 40 mg/kg (positive control)), the “Mean colony counts + SEM, urine day 2” value is reported as 2.7 ± 0.3 log10 CFU. For the same molecule, in assay [1] (urine, day 3 post infection, 40 mg/kg (positive control)), the “Mean colony counts + SEM, urine day 3” value is 2.1 ± 0.3 log10 CFU. In addition, in assay [2] (40 mg/kg (positive control)), the “Mean colony counts ± SEM, bladder day 3” value was determined as 3.9 ± 0.2 log10 CFU; the “Mean colony counts ± SEM, kidney day 3” value is 1.8 ± 0.4 log10 CFU; the “Mean colony counts ± SEM, urine day 3” value was determined as 1.8 ± 0.4 log10 CFU. The “Mean colony counts ± SEM, urine day 1” value in assay [2] (40 mg/kg group (positive control)) was 6.3 ± 1.0 log10 CFU.
With “Arenicin: antimicrobial polypeptide having the amino acid sequence shown in SEQ ID NO: 1 (GFCWYVCVYRNGVRVCYRRCN; mat_peptide (1)..(21); listed as Arenicola marina)”, the “Effect (CFU reduction) compared to Meropenem” value in assay [1] (10 mg/kg vs 40 mg/kg Meropenem, urine, bladder) was “comparable to that of Meropenem; also recorded: comparable to the effect of the Meropenem”. Moreover, the “Bacterial reduction in the urine compared to vehicle treatment” value (from here on “Bacterial reduction in the urine”) in assay [1] (after 1 day of treatment, 10 mg/kg i.v. BID) is listed as “significant bacterial reduction”; in assay [1] (after 2 days of treatment, 10 mg/kg i.v. BID, 10 mg/kg), “significantly (p<0.001) reduced the bacterial loads; also recorded: significant bacterial reduction”. Besides, the “Bacterial reduction in the bladder compared to vehicle treatment” value (“Bacterial reduction in the bladder” for short) in assay [1] (after 2 days of treatment, 10 mg/kg i.v. BID, p<0.01, 10 mg/kg) is reported as “Significant lower (p<0.01) CFU levels; also recorded: significant bacterial reduction”. In addition, the “Bacterial reduction in the kidneys compared to vehicle treatment” value (shortened to “Bacterial reduction in the kidneys”) in assay [1] (day 3 post infection, 10 mg/kg i.v. BID, 10 mg/kg) is given as “not significantly lower than the vehicle group; also recorded: slight reduction”. Also, the “Mean colony counts + SEM, bladder day 3” value in assay [1] (bladder, day 3 post infection, 10 mg/kg i.v. BID days 1 and 2, 10 mg/kg) was determined as 3.8±0.2 log10 CFU. Also, the “Mean colony counts + SEM, kidney day 3” value in assay [1] (day 3 post infection, 10 mg/kg i.v. BID days 1 and 2, 10 mg/kg) was 1.9±0.3 log10 CFU. Further, the “Mean colony counts + SEM, urine day 1” value in assay [1] (urine, 10 mg/kg group, 10 mg/kg) was determined as 6.9±0.3 log10 CFU. The “Mean colony counts + SEM, urine day 2” value in assay [1] (urine, after one day of treatment, 10 mg/kg i.v. BID, 10 mg/kg) came to 3.2±0.5 log10 CFU. The “Mean colony counts + SEM, urine day 3” value in assay [1] (urine, day 3 post infection, after completed treatment, 10 mg/kg i.v. BID days 1 and 2, 10 mg/kg) is 2.3±0.3 log10 CFU and 2.3 ± 0.2 log10 CFU.
“Variant1: antimicrobial polypeptide of SEQ ID NO: 2; Y5N+Y17H substitution as compared to Arenicin (SEQ ID NO: 1) (GFCWNVCVYRNGVRVCHRRCN)”: in assay [2], the “Bacterial reduction in the kidneys” value is listed as “significant bacterial reduction”, the “Effect of treatment compared to Meropenem” value was “comparable to the effect of treatment with Meropenem”, the “Bacterial reduction in the urine” value is “significant bacterial reduction” and the “Bacterial reduction in the bladder” value is reported as “significant bacterial reduction”. For the same molecule, in assay [2] (setting [3]), the “Mean colony counts ± SEM, bladder day 3” value is given as 3.8 ± 0.4 log10 CFU; the “Mean colony counts ± SEM, kidney day 3” value is 1.3 ± 0.2 log10 CFU; the “Mean colony counts ± SEM, urine day 3” value is 2.6 ± 0.4 log10 CFU. The “Mean colony counts ± SEM, urine day 1” value in assay [2] (10 mg/kg group) came to 7.1 ± 0.8 log10 CFU.
“Variant2: antimicrobial polypeptide of SEQ ID NO: 3; W4G+Y5H substitution as compared to Arenicin (GFCGHVCVYRNGVRVCYRRCN)”: in assay [2], the “Bacterial reduction in the kidneys” value is on record as “significant bacterial reduction”, the “Effect of treatment compared to Meropenem” value is reported as “comparable to the effect of treatment with Meropenem”, the “Bacterial reduction in the urine” value is recorded as “significant bacterial reduction” and the “Bacterial reduction in the bladder” value is on record as “significant bacterial reduction”. For the same molecule, in assay [2] (setting [3]), the “Mean colony counts ± SEM, bladder day 3” value stood at 3.7 ± 0.5 log10 CFU; the “Mean colony counts ± SEM, kidney day 3” value turned out to be 1.5 ± 0.4 log10 CFU; the “Mean colony counts ± SEM, urine day 3” value turned out to be 3.2 ± 0.5 log10 CFU. Further, the “Mean colony counts ± SEM, urine day 1” value in assay [2] (10 mg/kg group) stood at 5.7 ± 1.0 log10 CFU.
